Converted amounts (≈) assume the structure as drawn. Like-named read-outs stand apart in the source and are kept apart here.
What was measured:
C. difficile ATCC43255 = assay: MIC, broth microdilution; assay type: cell-based; details: Clostridioides difficile
C. difficile [1] = assay: MIC against C. difficile (strain not named; 14 strains overall); assay type: cell-based, Clostridium difficile; details: for C. difficile MIC: strain not named
C. difficile ATCC43598 = assay: MIC, broth microdilution; assay type: cell-based; details: Clostridioides difficile, C. difficile ATCC43598
C. difficile BAA-1870 = assay: MIC, broth microdilution; assay type: cell-based; details: Clostridioides difficile, BAA1870, C. difficile BAA-1870 (NAP1, ribotype 27)
C. difficile BAA-1804 = assay: MIC, broth microdilution; assay type: cell-based; details: Clostridioides difficile, BAA1804, C. difficile BAA-1804
C. difficile BAA-1803 = assay: MIC, broth microdilution; assay type: cell-based; details: Clostridioides difficile, BAA1803, C. difficile BAA-1803 (NAP1, ribotype 027)
C. difficile BAA-1801 = assay: MIC, broth microdilution; assay type: cell-based; details: Clostridioides difficile, BAA1801, C. difficile BAA-1801 (nontoxigenic)
C. difficile BAA-1812 = assay: MIC, broth microdilution; assay type: cell-based; details: Clostridioides difficile, BAA1812, C. difficile BAA-1812
[2] = system: Bacteroides fragilis HM-709; assay: MIC against common gut bacteria; assay type: cell-based; details: HM709; Bacteroides fragilis HM-709; read-out: MIC
Bacteroides fragilis = assay: MIC against common gut bacteria; assay type: cell-based; details: read-out: MIC
Bacteroides ovatus = assay: MIC against common gut bacteria; assay type: cell-based; details: read-out: MIC
Bacteroides vulgatus = assay: MIC against common gut bacteria; assay type: cell-based; details: Phocaeicola vulgatus; Bacteroides vulgatus; read-out: MIC
Bacteroides eggerthii = assay: MIC against common gut bacteria; assay type: cell-based; details: read-out: MIC
Bacteroides caccae = assay: MIC against common gut bacteria; assay type: cell-based; details: read-out: MIC
[3] = system: Bifidobacterium longum HM-846; assay: MIC against common gut bacteria; assay type: cell-based; details: HM846; Bifidobacterium longum HM-846; read-out: MIC
[4] = system: Corynebacterium sp. HM-784; assay: MIC against common gut bacteria; assay type: cell-based; details: SP.HM784; Corynebacterium sp. HM-784; incubated aerobically; read-out: MIC
Procedure: Minimally-inhibitory concentrations. MICs for C. difficile strains and the common gut bacteria were determined using broth microdilution techniques as reported earlier using brucella broth supplemented with hemin and vitamin K or supplemented BHIS broth (Babakhani et al., J Antimicrob Chemother 2013, 68(3), 515). Lactobacillus MRS broth was used for lactobacillus strains. […] All incubations unless specified otherwise were carried out at 24 or 48 h at 37° C. in an anaerobic chamber (Whitley DG250 workstation, Microbiology International, Frederick, MD). Corynebacterium and lactobacillus species were incubated aerobically.

[5] = system: Fusobacterium nucleatum HM-992; assay: MIC against common gut bacteria; assay type: cell-based; details: HM992; Fusobacterium nucleatum HM-992; read-out: MIC
[6] = system: Lactobacillus reuteri HM-102; assay: MIC against common gut bacteria; assay type: cell-based; details: Limosilactobacillus reuteri, HM102; Lactobacillus reuteri HM-102; read-out: MIC
[7] = system: Lactobacillus gasseri HM-644; assay: MIC against common gut bacteria; assay type: cell-based; details: HM644; Lactobacillus gasseri HM-644; read-out: MIC
Veillonella sp. HM-49 = assay: MIC against common gut bacteria; assay type: cell-based; details: SP.HM49; Veillonella sp. HM-49; read-out: MIC
C. difficile infection = details: patients treated for CDI; cited from earlier work
C. difficile [8] = details: cited from earlier work
[9] = system: DNA, protein and peptidoglycan synthesis in C. difficile ATCC 43255; assay: Macromolecular synthesis assays; assay type: cell-based; details: N-acetyl-d-[6-3H]-glucosamine incorporation; ½ MIC; 120 min
Description: Macromolecular synthesis assays. The method of Mathur et al (J Antimicrob Chemother 2011, 66(5), 1087) was used with a few modifications. [2,8-^3H]-adenine (40 Ci/mmol), 1-[3,4,5-^3H(N)]-leucine (120 Ci/mmol), and N-acetyl-d-[6-^3H]-glucosamine (30 Ci/mmol) were purchased from Perkin Elmer (Waltham, MA). Ciproflaxin, linezolid, and oxacillin, were used as positive controls for DNA, protein, and peptidoglycan, respectively. Ciprofloxacin and oxacillin were purchased from Sigma-Aldrich (St. Louis, MO), linezolid was obtained from AmplaChem Inc. (Carmel, IN). […] Aliquots were taken every 30 min for radioactive counting and viability. Optimal incubation times were 60 min for DNA, 180 min for protein, and 120 min for peptidoglycan.

[10] = ATCC43255, FIG. 3 legend, C. difficile, read-out: MIC of positive controls of the macromolecular synthesis assays

O=C(O)c1cn(C2CC2)c2cc(N3CCNCC3)c(F)cc2c1=O [ciprofloxacin]
MIC (C. difficile ATCC43255; [10]): 8 µg/mL

Oc1ccc(-c2nc(-c3ccc(OC4CCCC=C4Br)cc3)no2)cc1 (centres unmarked) [ix]
C. difficile MIC (C. difficile [1]): 2 µg/mL

CC(=O)NC[C@H]1CN(c2ccc(N3CCOCC3)c(F)c2)C(=O)O1 [linezolid]
MIC (C. difficile ATCC43255; [10]): 2 µg/mL

Cc1ncc([N+](=O)[O-])n1CCO [metronidazole]
MIC range in 14 C. difficile strains (C. difficile [1]; 14 C. difficile strains): 0.1 to 0.25 µg/mL
MIC (C. difficile ATCC43598; 24 h, read-out: MIC at 24 h): 0.125 µg/mL (≈ 0.73 µM)
MIC (C. difficile ATCC43598; 48 h, read-out: MIC at 48 h): 0.125 µg/mL (≈ 0.73 µM)
MIC (C. difficile ATCC43255; C. difficile ATCC43255, 24 h, read-out: MIC at 24 h): 0.01 µg/mL (≈ 0.0584 µM)
MIC (C. difficile ATCC43255; C. difficile ATCC43255, 48 h, read-out: MIC at 48 h): 0.01 µg/mL (≈ 0.0584 µM)
MIC (C. difficile BAA-1870; 24 h, read-out: MIC at 24 h): 0.25 µg/mL (≈ 1.46 µM)
MIC (C. difficile BAA-1870; 48 h, read-out: MIC at 48 h): 0.5 µg/mL (≈ 2.92 µM)
MIC (C. difficile BAA-1804; 24 h, read-out: MIC at 24 h): 0.25 µg/mL (≈ 1.46 µM)
MIC (C. difficile BAA-1804; 48 h, read-out: MIC at 48 h): 0.25 µg/mL (≈ 1.46 µM)
MIC (C. difficile BAA-1803; 24 h, read-out: MIC at 24 h): 0.25 µg/mL (≈ 1.46 µM)
MIC (C. difficile BAA-1803; 48 h, read-out: MIC at 48 h): 0.5 µg/mL (≈ 2.92 µM)
MIC (C. difficile BAA-1801; 24 h, read-out: MIC at 24 h): 0.125 µg/mL (≈ 0.73 µM)
MIC (C. difficile BAA-1801; 48 h, read-out: MIC at 48 h): 0.125 µg/mL (≈ 0.73 µM)
MIC (C. difficile BAA-1812; 24 h, read-out: MIC at 24 h): 0.25 µg/mL (≈ 1.46 µM)
MIC (C. difficile BAA-1812; 48 h, read-out: MIC at 48 h): 0.25 µg/mL (≈ 1.46 µM)
MIC [2]: 0.5 µg/mL (≈ 2.92 µM)
MIC (Bacteroides fragilis): 1 µg/mL (≈ 5.84 µM)
MIC (Bacteroides ovatus): 2 µg/mL (≈ 11.7 µM)
MIC (Bacteroides vulgatus): 2 µg/mL (≈ 11.7 µM)
MIC (Bacteroides eggerthii): 2 µg/mL (≈ 11.7 µM)
MIC (Bacteroides caccae): 2 µg/mL (≈ 11.7 µM)
MIC [3]: 0.5 µg/mL (≈ 2.92 µM)
MIC [4]: > 32 µg/mL
MIC [5]: 2 µg/mL (≈ 11.7 µM)
MIC [6]: > 32 µg/mL
MIC [7]: > 32 µg/mL
MIC (Veillonella sp. HM-49): 2 µg/mL (≈ 11.7 µM)
Patients with recurrence of the infection (C. difficile infection): About 25%
Activity against C. difficile spores (C. difficile [8]; at 8× or 80× MIC): not active
Inhibition of toxin production (C. difficile [8]; at 8×MIC): Neither vancomycin nor metronidazole inhibit toxin production

Cc1onc(-c2ccccc2)c1C(=O)N[C@@H]1C(=O)N2[C@@H]1SC(C)(C)[C@@H]2C(=O)O [oxacillin]
MIC (C. difficile ATCC43255; [10]): 8 µg/mL
Inhibition of peptidoglycan synthesis [9]: 54.1±13%

CCCCCc1ccc(/C(C)=C/C(=O)N[C@H](Cc2c[nH]c3ccccc23)C(=O)N[C@H](CC(N)=O)C(=O)N[C@@H](CC(=O)O)C(=O)N[C@@H]2C(=O)NCC(=O)N[C@@H](CCCN)C(=O)N[C@@H](CC(=O)O)C(=O)N[C@H](C)C(=O)N[C@@H](CC(=O)O)C(=O)NCC(=O)N[C@H](CO)C(=O)N[C@@H]([C@H](C)CC(=O)O)C(=O)N[C@@H](CC(=O)c3ccccc3N)C(=O)O[C@@H]2C)cc1 [surotomycin]
Inhibition of toxin production (C. difficile [8]; […]): nor inhibits toxin production

Oc1ccc(-c2nc(-c3ccc(OC4CC4)cc3)no2)cc1 [vii]
C. difficile MIC (C. difficile [1]): 8 µg/mL

Oc1ccc(-c2nc(-c3ccc(OC4CCC=C4Br)cc3)no2)cc1 (centres unmarked) [xi]
C. difficile MIC (C. difficile [1]): 2 µg/mL

Oc1ccc(-c2nc(-c3ccc(OC(F)(F)F)cc3)no2)cc1 [xvii]
C. difficile MIC (C. difficile [1]): 4 µg/mL

NCc1ccc(-c2nc(-c3ccc(Oc4ccc(C(F)(F)F)cc4)cc3)no2)cc1 [xxi]
C. difficile MIC (C. difficile [1]): 4 µg/mL

Oc1ccc(-c2nc(-c3ccc(OC4CCCC4)cc3)no2)cc1 [xxii]
C. difficile MIC (C. difficile [1]): 2 µg/mL
